Data taken from patent publication EP3860599B1, “(+)-ALPHA-DIHYDROTETRABENAZINE DOSAGE REGIMEN FOR TREATING MOVEMENT DISORDERS” (Adeptio Pharmaceuticals Limited, priority 2018, dated 2020).
Where two headings read alike, the source gives them in different places.

Legend:
[1] = test system: amphetamine-induced rats; assay: Open field locomotor activity test in amphetamine-induced rats (Example 2, Studies 1, 2 and 4); format: in vivo; conditions: 1 mg/kg
Method: (§1) All animal experiments were carried out according to the National Institute of Health (NIH) guidelines for the care and use of laboratory animals, and approved by the National Animal Experiment Board, Finland. Male CD (Charles River Laboratories, Germany) at weight range of 200-250 g (165-200 g upon arrival) were used for the experiments. Animals were housed at a standard temperature (22 ± 1°C) and in a light-controlled environment (lights on from 7 am to 8 pm) with ad libitum access to food and water.
(§2) Locomotor activity of the rats was tested in open field arena. The open field test was performed during the rat light cycle and under a normal lighting evenly distributed to the test chambers. The paths of the rats were recorded by activity monitor (Med. Associates Inc.).
(§3) Dosing the vehicle, vehicle-amphetamine, (+)-α-DHTBZ or risperidone was done prior to LMA test. The rats were placed in the centre of the arena, and the path was recorded for 60 minutes.
Animals were grouped as follows: • Group 1: 10 rats treated with Vehicle (t= 0 min) and Vehicle (t= 30 min) • Group 2: 10 rats treated with Vehicle (t= 0 min) and Amphetamine (t= 30 min) • Group 3: 10 rats treated with (+)-α-DHTBZ 0.5 mg/kg (t=0 min) and Amphetamine (t= 30 min) • Group 4: 10 rats treated with (+)-α-DHTBZ 1 mg/kg (t=0 min) and Amphetamine (t= 30 min) • Group 5: 10 rats treated with (+)-α-DHTBZ 1.5 mg/kg (t=0 min) and Amphetamine (t= 30 min) • Group 6: 10 rats treated with (+)-α-DHTBZ 2 mg/kg (t=0 min) and Amphetamine (t= 30 min) • Group 7: 10 rats treated with risperidone 1 mg/kg (t=0 min) and Amphetamine (t= 30 min)
Animals were grouped as follows: • Group 1: 10 rats treated with Vehicle (t= 0 min) and Vehicle (t= 30 min) • Group 2: 10 rats treated with Vehicle (t= 0 min) and Amphetamine (t= 30 min) • Group 3: 10 rats treated with (+)-α-DHTBZ 0.1 mg/kg (t=0 min) and Amphetamine (t=30 min) • Group 4: 10 rats treated with (+)-α-DHTBZ 0.25 mg/kg (t=0 min) and Amphetamine (t=30 min) • Group 5: 10 rats treated with risperidone 1 mg/kg (t=0 min) and Amphetamine (t= 30 min)
Animals were grouped as follows: • Group 1: 10 rats treated with Vehicle (t= 0 min) and Vehicle (t= 30 min) • Group 2: 10 rats treated with Vehicle (t= 0 min) and Amphetamine (t= 30 min) • Group 3: 10 rats treated with (+)-α-DHTBZ 1 mg/kg (t=0 min) and Amphetamine (t=30 min) • Group 4: 10 rats treated with (+)-α-DHTBZ 1.5 mg/kg (t=0 min) and Amphetamine (t=30 min) • Group 5: 10 rats treated with Valbenazine 1 mg/kg (t=0 min) and Amphetamine (t=30 min) • Group 6: 10 rats treated with Valbenazine 1.5 mg/kg (t=0 min) and Amphetamine (t=30 min) • Group 7: 10 rats treated with risperidone 1 mg/kg (t=0 min) and Amphetamine (t= 30 min)

[2] = test system: non-amphetamine induced rats; assay: Open field locomotor activity test in rats without amphetamine induction (Example 2, Study 3); format: in vivo; conditions: 1 mg/kg
Method: as §1, §2, §3
Animals were grouped as follows: • Group 1: 10 rats treated with Vehicle • Group 2: 10 rats treated with (+)-α-DHTBZ 2.5 mg/kg • Group 3: 10 rats treated with (+)-α-DHTBZ 5 mg/kg • Group 4: 10 rats treated with risperidone 1 mg/kg

[3] = cited from earlier work; for symptoms scored with the abnormal involuntary movement scale (AIMS): KINECT 1, tardive dyskinesia patients

In the case of Cc1nc2n(c(=O)c1CCN1CCC(c3noc4cc(F)ccc34)CC1)CCCC2 [risperidone, reference compound], the “locomotor activity when compared to the vehicle-amphetamine group” value ([1]; Study 1 conclusions) is reported as “lower locomotor activity”, the “stereotypic behaviour when compared to the vehicle-amphetamine group” value ([1]; Study 1 conclusions) is reported as “reduced stereotypic behaviour” and the “locomotor activity when compared to the vehicle-amphetamine group” value ([1]; Study 2 conclusions) is reported as “lower locomotor activity”. For the same molecule, the “stereotypic behaviour when compared to the vehicle-amphetamine group” value ([1]; Study 2 conclusions) was “reduced stereotypic behaviour”, the total movement [2] was “reduced total movement” and the total stereotypic behaviour [2] was “reduced total stereotypic behaviour”.
In the case of COc1cc2c(cc1OC)[C@H]1C[C@@H](OC(=O)[C@@H](N)C(C)C)[C@H](CC(C)C)CN1CC2 [Valbenazine, reference compound], the “symptoms scored with the abnormal involuntary movement scale (AIMS)” value ([3]; 50 mg/day) is given as “did not show any significant signs of improvement”, the “symptoms scored with the abnormal involuntary movement scale (AIMS)” value ([3]; 100 mg/day) is given as “some reduction of symptoms” and the “Abnormal Involuntary Movement Score” value ([3]; KINECT 3, Tardive Dyskinesia sufferers, 80mg/day) is given as “significant improvement”.
